According to patent US8293212B2, “Inhibitor screening method and atopic dermatitis like symptom inducing method which utilizes induction of production of interleukin 18 by keratinocyte and utilization of same” (Japan Science & Technology Agency, priority 2003, dated 2012):
Where a SMILES comes first, the peptide text is derived from it. The star is where a group is joined. Cbz = O=C(OCc1ccccc1)*; CH2F = FC*

Key:
[1] = system: KC from wild-type B6 mice; assay: IL-18 secretion from newly isolated KC after stimulation, ELISA of supernatant; format: cell-based, mouse
Experimental: (§1) Concentration of IL-18 was determined by an ELISA kit manufactured by MBL. IL-4, IFN-γ, and IL-1β were determined by an ELISA kit manufactured by Genzyme. An ELISA kit for IL-5 was purchased from Endogen. IgE serum level was determined by an ELISA kit manufactured by pharMingen. IFN-γ induction ability of IL-18 was determined by bioassay using clones of IL-18-responsive mouse NK cells (see Non-Patent Document 6 and others)
In order to delete DC, KC were incubated with CD11c microbeads (manufactured by Miltenyi Biotec), and then CD 11c^+ cells were depleted using an AutoMACS™ separator.
KC (5×10^5/ml) or PAM212 cells (2×10^5/ml) were incubated with a variety of doses of SpA and 1 μg/ml LPS or mFasL (1×10^6/ml) for 24 hours. In some examples, KC of wild-type mice were incubated with 100 μg/ml SpA in the presence of 20 μM of ZVAD or YVAD for 24 hours. IL-18 concentration and its activity in each supernatant were determined by ELISA and bioassay respectively. In some examples, KC were incubated with 500 μg/ml SpA for 4 hours, and total RNA was extracted, followed by RT-PCR (see Tsutsui, H., Matsui, K., Kawada, N., Hyodo, Y., Hayashi, N., Okamura, H., Higashino, K. and Nakanishi, K. 1997. IL-18 accounts for both TNF-α and Fas ligand-mediated hepatotoxic pathways in endotoxin-induced liver injury in mice. J. Immunol. 159:3961). As to primers for IL-18, IL-12p35, IL-12p40, or β-actin, and PCR conditions for individual cytokines, see the Tsutsui et al. […]
To be specific, KC or CD11c^+ cell-depleted KC prepared from skin of wild-type B6 mice were analyzed for their expression of CD11c and MHC class II (1-A^b) by flow cytometry. These cells were incubated with or without SpA for 24 hours, and concentration of IL-18 in the resulting supernatant was measured by ELISA. […]
Further, because Kupffer cells secrete IL-18 in response to stimulation with LPS or membrane-bound Fas ligand, it was examined whether these stimuli induce IL-18 secretion from KC. […] IL-18 contained in each resulting supernatant was measured by ELISA.

Kupffer cells [2] = assay: Cytokine expression and secretion of Kupffer cells after stimulation; format: cell-based, mouse; conditions: in response to SpA, data not shown
Experimental: Kupffer cells were prepared according to Non-Patent Document 6. Kupffer cells (1×10^6/ml) were incubated with 1 μg/ml LPS (lypopolysaccharide) for 4 hours, and their IL-18, IL-12p35, IL-12p40 and β-actin expressions were determined as mRNA levels by RT-PCR.
Next, it was examined whether SpA-stimulated KC secretes IL-12 as well as IL-18. In order to detect a small amount of IL-12, total RNA were obtained from KC that had been incubated with SpA for 4 hours, and RT-PCR was performed using the RNA. To be specific, KC and Kupffer cells of wild-type B6 mice were separately incubated in the presence/absence of 500 μg/ml SpA, and in the presence/absence of 1 μg/ml LPS for 4 hours. Expression level of mRNA of IL-18, IL-12p40, IL-12p35, and β-actin out of all extracted RNA were measured by RT-PCR. The result of the measurement is illustrated in FIG. 7D.

NC/Nga mice = assay: Induction of AD-like skin lesion by application on shaven backs of NC/Nga mice; format: in vivo, mouse; conditions: 4% of SDS, SpA 200 μg/day, alone or as mixture
PAM212 cells = assay: IL-18 secretion and IFN-γ-inducing bioactivity of IL-18 from PAM212 cells incubated with SpA; format: cell-based, mouse; conditions: PAM212 cells incubated with SpA 24 hours (FIG. 7A)
Experimental: as §1
To be specific, LNK5E6 cells, having higher responsiveness to stimulation with IL-18 in terms of IFN-γ production than LNK5E3 cells (see Non-Patent Document 6), were incubated with a variety of samples and 100 pg/ml IL-12, in the presence or absence of anti-IL-18 antibody (50 μg/ml), for 48 hours. […]
KC (5×10^5/ml) or PAM212 cells (2×10^5/ml) were incubated with a variety of doses of SpA and 1 μg/ml LPS or mFasL (1×10^6/ml) for 24 hours. […] IL-18 concentration and its activity in each supernatant were determined by ELISA and bioassay respectively. […]
To be specific, PAM212 cells (culture strain of KC of mice) were incubated with or without SpA for 24 hours, and the IL-18 concentration and IFN-γ-inducing bioactivity of IL-18 in each supernatant were determined by ELISA and bioassay respectively. […] ND stands for “not detected”.

KC of wild-type B6 mice = assay: IL-12 expression (RT-PCR) and IL-12 secretion (ELISA) in SpA-stimulated KC; format: cell-based, mouse
Experimental: (§2) KC (5×10^5/ml) or PAM212 cells (2×10^5/ml) were incubated with a variety of doses of SpA and 1 μg/ml LPS or mFasL (1×10^6/ml) for 24 hours. In some examples, KC of wild-type mice were incubated with 100 μg/ml SpA in the presence of 20 μM of ZVAD or YVAD for 24 hours. IL-18 concentration and its activity in each supernatant were determined by ELISA and bioassay respectively. In some examples, KC were incubated with 500 μg/ml SpA for 4 hours, and total RNA was extracted, followed by RT-PCR (see Tsutsui, H., Matsui, K., Kawada, N., Hyodo, Y., Hayashi, N., Okamura, H., Higashino, K. and Nakanishi, K. 1997. IL-18 accounts for both TNF-α and Fas ligand-mediated hepatotoxic pathways in endotoxin-induced liver injury in mice. J. Immunol. 159:3961). As to primers for IL-18, IL-12p35, IL-12p40, or β-actin, and PCR conditions for individual cytokines, see the Tsutsui et al.
Next, it was examined whether SpA-stimulated KC secretes IL-12 as well as IL-18. In order to detect a small amount of IL-12, total RNA were obtained from KC that had been incubated with SpA for 4 hours, and RT-PCR was performed using the RNA. […] Expression level of mRNA of IL-18, IL-12p40, IL-12p35, and β-actin out of all extracted RNA were measured by RT-PCR. […]

normal B6 mice = assay: Application of SpA on ear skin of normal B6 mice, serum IL-18/IgE and Th1/Th2 differentiation; format: in vivo, mouse
Experimental: Splenic CD4^+ T cells were isolated from variously treated mice using an AutoMACS™ separator (manufactured by Miltenyi Biotec). The newly isolated spleen cells were incubated with anti-CD4 beads (manufactured by Miltenyi Biotec). The purity of the CD4^+ T cells was more than 98%. The cells (1×10^6/ml) were incubated with immobilized anti-CD3ε (manufactured by PharMingen) for 48 hours. Concentrations of IFN-γ and IL-4 in each supernatant were determined by ELISA.
as §1
Solutions made by dissolving various doses of SpA in 5 μl vehicle (50% glycerol in PBS) were prepared, and the SpA solutions were applied on ear skin of wild-type mice for 14 days. For the control study, 5 μl vehicle without SpA was used. One mouse was caged to avoid effects from other mice.
To be specific, various amounts of SpA or only vehicles were applied on ear skin of normal B6 mice once a day for two weeks. After that, on day 14, serum and spleens were sampled so as to measure concentration of IL-18 or IgE. Further, splenic CD4^+ T cells from mice on which vehicle or SpA(100 μg/day) was applied were incubated with plate-bound anti-CD3 for 48 hours, and concentrations of IFN-γ and IL-4 in each supernatant were measured by ELISA. The results of the measurements are illustrated in FIGS. 6A through 6C.

Kupffer cells [3] = conditions: secretion caused by LPS or membrane-bound Fas ligand stimulation; stated as background; cited from earlier work
[4] = system: KC of wild-type mice stimulated with SpA; assay: Effect of caspase inhibitors on IL-18 secretion from SpA-stimulated KC; format: cell-based, mouse; conditions: 20 μM inhibitor, 500 μg/ml SpA, 24 hours (FIG. 7C)
Experimental: as §2
To be specific, KC were prepared from wild-type mice, caspase-1-deficient mice, TLR2-deficient mice, or MyD88-deficient mice. The KC of the wild-type mice were incubated with 500 μg/ml SpA in the presence of 20μ MZVAD, 20 μM YVAD, or the same volume of DMSO(Veh) for 24 hours. On the other hand, KC from each of the mutants were incubated with 500 μg/ml SpA for 24 hours. IL-18 in each supernatant was measured by ELISA. The result is illustrated in FIG. 7C. […]

Compound | IL-18 produced by KC ([1]; 500 μg/ml SpA without adding DMSO, 24 hours (FIG. 7C)) [pg/mL] | IL-18 in supernatant ([1]; KC 5×10^5/ml, 24 hours, 500 μg/ml SpA, 1 μg/ml LPS or 1×10^6/ml mFasL, ND = not detected) [pg/mL] | IL-18 release from newly isolated KC in response to SpA ([1]; various amounts of SpA, 24 hours (FIG. 7B)) | secretion of IL-12 or IL-18 from Kupffer cells (Kupffer cells [2]) | development of AD / skin lesion like AD (NC/Nga mice) | secretion of activated IL-18 (ELISA and IFN-γ-inducing bioassay) (PAM212 cells) | IL-12p35 and IL-12p40 mRNA expression (RT-PCR) (KC of wild-type B6 mice; 500 μg/ml SpA, 4 hours (FIG. 7D)) | IL-12p40 or IL-12p70 in supernatant (ELISA) (KC of wild-type B6 mice; 24-hour incubation, data not shown) | Th1/Th2 differentiation of splenic CD4+ T cells (IFN-γ and IL-4) (normal B6 mice; SpA 100 μg/day, anti-CD3 48 hours (FIG. 6C)) | IL-12p40 and IL-12p70 in sera (ELISA) (normal B6 mice; data not shown) | serum levels of IL-18 (normal B6 mice; ear skin, once a day for two weeks, day 14 (FIG. 6A)) | serum IgE levels (normal B6 mice; ear skin, once a day for two weeks, day 14 (FIG. 6B)) | inhibition of IL-18 secretion from Kupffer cells (Kupffer cells [3]) | inhibition of secretion of IL-18 from SpA-stimulated KC [4]
SpA: protein A purified from Staphylococcus aureus Cowan 1, purchased from Calbiochem | 28.4 ± 3.5 | 31.5 ± 3.2 | released IL-18 in a dose-dependent manner | did not secrete IL-12 or IL-18 | do not develop AD | secreted activated IL-18 | neither IL-12p35 nor IL-12p40 were detected | not detected | did not show preferential differentiation of Th2 cells | not detected | increased | increased in a dose-dependent manner |  | 
CC(=O)N[C@@H](Cc1ccc(O)cc1)C(=O)N[C@H](C(=O)N[C@@H](C)C(=O)N[C@@H](CC(=O)O)C(=O)CCl)C(C)C [YVAD, Ac-YCAD-CMK] |  |  |  |  |  |  |  |  |  |  |  |  | strongly inhibit | did not inhibit
COC(=O)C[C@H](NC(=O)[C@H](C)NC(=O)[C@@H](NC(=O)OCc1ccccc1)C(C)C)C(=O)CF [ZVAD, Z-VAD-FMK] (Cbz-Val-Ala-Asp(OMe)-CH2F) |  |  |  |  |  |  |  |  |  |  |  |  | strongly inhibit | did not inhibit
